Patent US20240208970A1, “SUBSTITUTED HYDANTOIN COMPOUNDS, METHODS FOR PREPARATION THEREOF AND USE THEREOF IN THE TREATMENT AND/OR PREVENTION OF A CORONA VIRUS DISEASE” (priority 2021, published 2024)

These compounds were tested against SARS-CoV-2 M^pro protease (Severe acute respiratory syndrome coronavirus 2 (2019-nCoV) (SARS-CoV-2), UniProt P0DTD1) (assay: biochemical). Details: Table 5A; M^pro 75 nM, substrate 10 μM.
Format: biochemical

Row | SMILES | IC50 [µM]
1 | Cc1c(Br)cncc1N1C(=O)NC2(CC(C(C)(C)C)C2)C1=O (stereo not drawn) [Compound 5, 7-(5-bromo-4-methylpyridin-3-yl)-2-tert-butyl-5,7-diazaspiro[3.4]octane-6,8-dione] | 2.7
2 | Cc1c(Br)cncc1N1C(=O)NC2(CC(C3CCC3)C2)C1=O (stereo not drawn) [Compound 6, 7-(5-bromo-4-methylpyridin-3-yl)-2-cyclobutyl-5,7-diazaspiro[3.4]octane-6,8-dione] | 2
3 | Cc1c(Br)cncc1N1C(=O)NC2(CC(c3ccccc3)C2)C1=O (stereo not drawn) [Compound 7, 7-(5-bromo-4-methylpyridin-3-yl)-2-phenyl-5,7-diazaspiro[3.4]octane-6,8-dione] | 2
4 | Cc1cccnc1CN1C(=O)NC2(CC(C(C)(C)C)C2)C1=O (stereo not drawn) [Compound 9, 2-tert-butyl-7-[(3-methylpyridin-2-yl)methyl]-5,7-diazaspiro[3.4]octane-6,8-dione] | > 10
5 | Cc1ccncc1N1C(=O)NC2(CC(c3ccccc3)C2)C1=O (stereo not drawn) [Compound 11, 7-(4-methylpyridin-3-yl)-2-phenyl-5,7-diazaspiro[3.4]octane-6,8-dione] | 2.3
6 | CC(C)(C)C1CC2(C1)NC(=O)N(c1cncc(F)c1)C2=O (stereo not drawn) [Compound 12, 2-tert-butyl-7-(5-fluoropyridin-3-yl)-5,7-diazaspiro[3.4]octane-6,8-dione] | 5.5
7 | O=C1NC2(CC(C3CCC3)C2)C(=O)N1c1cncc(Br)c1 (stereo not drawn) [Compound 14, 7-(5-bromopyridin-3-yl)-2-cyclobutyl-5,7-diazaspiro[3.4]octane-6,8-dione] | 6

Same assay, conditions: Tables 5B-5E; M^pro 75 nM, substrate 10 μM

Row | SMILES | IC50 [µM]
8 | O=C1NC2(CC(c3ccccc3Br)C2)C(=O)N1c1cncc2ccccc12 (single isomer, unassigned) [Compound 16, 2-(2-bromophenyl)-7-(isoquinolin-4-yl)-5,7-diazaspiro[3.4]octane-6,8-dione] | 0.127
9 | O=C1NC2(CC(c3ccccc3Br)C2)C(=O)N1c1cncc2ccccc12 (single isomer, unassigned) [Compound 17, 2-(2-bromophenyl)-7-(isoquinolin-4-yl)-5,7-diazaspiro[3.4]octane-6,8-dione] | 0.079
10 | O=C1NC2(CC(c3c(Cl)cccc3Cl)C2)C(=O)N1c1cncc2ccccc12 (single isomer, unassigned) [Compound 28, 2-(2,6-dichlorophenyl)-7-(isoquinolin-4-yl)-5,7-diazaspiro[3.4]octane-6,8-dione] | 0.291
11 | O=C1NC2(CC(c3c(Cl)cccc3Cl)C2)C(=O)N1c1cncc2ccccc12 (single isomer, unassigned) [Compound 29, 2-(2,6-dichlorophenyl)-7-(isoquinolin-4-yl)-5,7-diazaspiro[3.4]octane-6,8-dione] | 0.165
12 | O=C1NC2(CC(c3cccc(F)c3Cl)C2)C(=O)N1c1cncc2ccccc12 (single isomer, unassigned) [Compound 30, 2-(2-chloro-3-fluorophenyl)-7-(isoquinolin-4-yl)-5,7-diazaspiro[3.4]octane-6,8-dione] | 0.372
13 | O=C1NC2(CC(c3cccc(F)c3Cl)C2)C(=O)N1c1cncc2ccccc12 (single isomer, unassigned) [Compound 31, 2-(2-chloro-3-fluorophenyl)-7-(isoquinolin-4-yl)-5,7-diazaspiro[3.4]octane-6,8-dione] | 0.15
14 | O=C1NC2(CC(c3cc(F)ccc3Cl)C2)C(=O)N1c1cncc2ccccc12 (single isomer, unassigned) [Compound 34, 2-(2-chloro-5-fluorophenyl)-7-(isoquinolin-4-yl)-5,7-diazaspiro[3.4]octane-6,8-dione] | 0.475
15 | O=C1NC2(CC(c3cc(F)ccc3Cl)C2)C(=O)N1c1cncc2ccccc12 (single isomer, unassigned) [Compound 35, 2-(2-chloro-5-fluorophenyl)-7-(isoquinolin-4-yl)-5,7-diazaspiro[3.4]octane-6,8-dione] | 0.082
16 | O=C1NC2(CC(c3c(F)cccc3Cl)C2)C(=O)N1c1cncc2ccccc12 (single isomer, unassigned) [Compound 36, 2-(2-chloro-6-fluorophenyl)-7-(isoquinolin-4-yl)-5,7-diazaspiro[3.4]octane-6,8-dione] | 0.205
17 | O=C1NC2(CC(c3c(F)cccc3Cl)C2)C(=O)N1c1cncc2ccccc12 (single isomer, unassigned) [Compound 37, 2-(2-chloro-6-fluorophenyl)-7-(isoquinolin-4-yl)-5,7-diazaspiro[3.4]octane-6,8-dione] | 0.064
18 | CC1(c2ccccc2)CC2(C1)NC(=O)N(c1cncc3ccccc13)C2=O (single isomer, unassigned) [Compound 38, 7-(isoquinolin-4-yl)-2-methyl-2-phenyl-5,7-diazaspiro[3.4]octane-6,8-dione] | 0.071
19 | CC1(c2ccccc2)CC2(C1)NC(=O)N(c1cncc3ccccc13)C2=O (single isomer, unassigned) [Compound 39, 7-(isoquinolin-4-yl)-2-methyl-2-phenyl-5,7-diazaspiro[3.4]octane-6,8-dione] | 0.926
20 | O=C1NC2(CC(c3ccsc3Cl)C2)C(=O)N1c1cncc2ccccc12 (single isomer, unassigned) [Compound 40, 2-(2-chlorothiophen-3-yl)-7-(isoquinolin-4-yl)-5,7-diazaspiro[3.4]octane-6,8-dione] | 0.304
21 | O=C1NC2(CC(c3ccsc3Cl)C2)C(=O)N1c1cncc2ccccc12 (single isomer, unassigned) [Compound 41, 2-(2-chlorothiophen-3-yl)-7-(isoquinolin-4-yl)-5,7-diazaspiro[3.4]octane-6,8-dione] | 0.081
22 | O=C1NC2(CC(c3sccc3Cl)C2)C(=O)N1c1cncc2ccccc12 (single isomer, unassigned) [Compound 42, 2-(3-chlorothiophen-2-yl)-7-(isoquinolin-4-yl)-5,7-diazaspiro[3.4]octane-6,8-dione] | 0.185
23 | O=C1NC2(CC(c3sccc3Cl)C2)C(=O)N1c1cncc2ccccc12 (single isomer, unassigned) [Compound 43, 2-(3-chlorothiophen-2-yl)-7-(isoquinolin-4-yl)-5,7-diazaspiro[3.4]octane-6,8-dione] | 0.059
24 | O=C1NC2(CC(c3sccc3Br)C2)C(=O)N1c1cncc2ccccc12 (single isomer, unassigned) [Compound 44, 2-(3-bromothiophen-2-yl)-7-(isoquinolin-4-yl)-5,7-diazaspiro[3.4]octane-6,8-dione] | 0.081
25 | O=C1NC2(CC(c3sccc3Br)C2)C(=O)N1c1cncc2ccccc12 (single isomer, unassigned) [Compound 45, 2-(3-bromothiophen-2-yl)-7-(isoquinolin-4-yl)-5,7-diazaspiro[3.4]octane-6,8-dione] | 0.057
26 | CC1(c2ccc(F)cc2Cl)CC2(C1)NC(=O)N(c1cncc3ccccc13)C2=O (single isomer, unassigned) [Compound 83, 2-(2-chloro-4-fluorophenyl)-7-(isoquinolin-4-yl)-2-methyl-5,7-diazaspiro[3.4]octane-6,8-dione] | 0.241
27 | CC1(c2ccc(F)cc2Cl)CC2(C1)NC(=O)N(c1cncc3ccccc13)C2=O (single isomer, unassigned) [Compound 84, 2-(2-chloro-4-fluorophenyl)-7-(isoquinolin-4-yl)-2-methyl-5,7-diazaspiro[3.4]octane-6,8-dione] | 0.806
